Reference: patent US8367702B2, “Quinolone derivative” (Astellas Pharma Inc., priority 2007, dated 2013)

Tests used:
NADPH oxidase = experiment: Inhibitory activity on ROS production derived from NADPH oxidase (HUVECs, nitrotetrazolium blue); type: cell-based, Human; conditions: 1.0 μM test compound, 25 mM glucose, 200 μM NADPH, 2 hours
Procedure: Test 1: Inhibitory Activity on ROS Production Derived from NADPH Oxidase
This activity was measured by using Human Umbilical Vein Endothelial Cells (HUVECs). The test method is as follows.
3×10^4 cells/well (100 μL) of HUVECs were seeded into a 96-well plate coated with collagen. The culture medium was MCDB131 medium containing 10% fetal bovine serum, 2 mM glutamine, 100 U/mL penicillin, 100 U/mL streptomycin, and 10 ng/mL recombinant human basic-FGF. On the next day, the culture medium was removed by an aspirator, and 100 μL/well of phosphate buffered saline containing 25 mM glucose, 200 μM NADPH, 0.2% nitrotetrazolium blue, and test compounds followed by culturing at 37° C. Nitrotetrazolium blue reacts with intracellularly produced ROS and turns into a water-insoluble blue pigment. After 2 hours, the supernatant was discarded, and the wells were washed three times with phosphate buffered physiological saline. Then, 100 μL/well of 90% DMSO water containing 0.04M sodium hydroxide was added to each well to completely dissolve the pigment, and an absorbance at a wavelength of 715 nm was measured. By taking an absorbance with no addition of a test compound as A, an absorbance […], and an absorbance with addition of glucose, NADPH and a test compound as C, ROS production inhibitory rate was calculated according to the following equation. Inhibition rate (%)=[…]
Abbreviation “Ex” in the table represents Example Compound No. which will follow, and abbreviation “Inh” represents an ROS production inhibition rate. It was confirmed that the compounds of the formula (I) of the present invention have an excellent ROS production inhibitory activity.

[1] = Oral glucose tolerance test using mice; type: in vivo; conditions: Mus musculus, 0.5 h, 3 mg/kg orally 5 minutes prior to oral glucose loading (2 g/kg), 30 minutes after glucose loading, relative to control group, male ICR or C57BL/6 J mice, read-out: blood glucose-lowering rate
Text: Test 2: Oral Glucose Tolerance Test Using Mice
This test is intended to evaluate an inhibitory action of a test compound on elevation of the blood glucose level after glucose loading, using mice. A test method is described hereinafter.
Male ICR or C57BL/6 J mice (6 weeks old, available from CLEA JAPAN, Inc.) pre-bred for one week were fasted overnight and used as test animals. A test compound was suspended in 10% PEG-60 Hydrogenated Castor Oil (HCO-60) aqueous solution, and was orally administered (3 mg/kg) to animals 5 minutes prior to oral glucose loading (2 g/kg). The control group was given a 10% HCO-60 aqueous solution. According to the following equation, a blood glucose-lowering rate (%) at 30 minutes after glucose loading was calculated for the test compound-treated group relative to the control group. An increase in the blood glucose level of the test compound-treated group and an increase in the blood glucose level of the control group were taken as A and B, respectively. Blood glucose-lowering rate (%)=100−[(A/B)×100]

Structure (SMILES) | melting point | Inh(%) ROS production inhibition rate (NADPH oxidase) [%] | inhibition in vivo at 3 mg/kg [1] [%]
Cc1c(COCCCCOc2ccc(C#N)cc2)[nH]c2ccccc2c1=O [Ex 49] | – | 90.8 ± 5.2 | –
COCCc1ccc(OCCCCOCc2[nH]c3ccccc3c(=O)c2C)cc1 [Ex 50] | – | 80.5 ± 2.5 | –
COC(C)(C)CCOCCCCOCc1[nH]c2ccccc2c(=O)c1C [Ex 55] | – | 57.3 ± 2.3 | –
CC(=O)N1CCC(COc2cccc(OCc3[nH]c4ccccc4c(=O)c3C)c2)CC1 [Ex 98] | – | 101.5 ± 1.9 | –
Cc1c(COc2cccc(OCCc3ccncc3)c2)[nH]c2ccccc2c1=O [Ex 127] | – | 85.3 ± 2.9 | –
CCCCCC(=O)N1CCC(OCc2[nH]c3ccc(F)cc3c(=O)c2C)CC1 [Ex 128] | – | 77.7 ± 3.9 | –
Cc1c(COc2cccc(OCCC(C)(C)O)c2)[nH]c2ccccc2c1=O [Ex 141] | – | – | 70 to 105
Cc1c(COc2cccc(OCC3CCOCC3)n2)[nH]c2ccccc2c1=O [Ex 143] | 221 to 223 °C | – | –
Cc1c(COc2cc(OCC3CCOCC3)ccn2)[nH]c2ccc(F)cc2c1=O [Ex 153] | – | – | 70 to 105
Cc1c(COc2ccc3c(c2)N(C(=O)CC2CCOCC2)CCC3)[nH]c2ccc(F)cc2c1=O [Ex 166] | – | 84.3 ± 2.4 | –
Cc1c(CN2CCc3cc(OCC4CCOCC4)ccc3C2)[nH]c2ccccc2c1=O [Ex 180] | – | 69.5 ± 1.3 | –
COC(C)(C)CCOc1ccnc(OCc2[nH]c3ccccc3c(=O)c2C)c1 [Ex 186] | – | – | 70 to 105
Cc1c(COc2cccc(N3CCC(OCCC(C)(C)O)CC3)c2)[nH]c2ccccc2c1=O [Ex 194] | 160 to 163 °C | – | –
Cc1c(COc2cccc(N3CCC(O)CC3)c2)[nH]c2ccccc2c1=O [Ex 198] | – | 97.5 ± 6.1 | –
Cc1c(COc2cccc(N3CCC(C)(O)CC3)c2)[nH]c2ccccc2c1=O [Ex 199] | – | 93.1 ± 1.1 | –
Cc1c(CCC2CCN(C(=O)C3CC3)CC2)[nH]c2ccccc2c1=O [Ex 209] | 222 to 224 °C | – | –
Cc1c(COc2ccc3c(c2)CCN(C(=O)CC(C)(C)O)C3)[nH]c2ccccc2c1=O [Ex 213] | 135 to 138 °C | – | –
Cc1c(COCCN(C(=O)C2CCOCC2)C2CCCCC2)[nH]c2ccccc2c1=O [Ex 228] | – | 66.3 ± 2.1 | –
Cc1c(CO[C@H]2CC[C@H](NC(=O)CC(C)(C)O)CC2)[nH]c2ccccc2c1=O [Ex 248] | – | – | 89
Cc1c(CCC2CCN(C(=O)CC(C)(C)O)CC2)[nH]c2ccccc2c1=O [Ex 271] | 203 to 205 °C | – | –
CCOC(=O)N1CCC(CCc2[nH]c3ccccc3c(=O)c2C)CC1 [Ex 276] | 211 to 213 °C | 118.2 ± 4.0 | –
Cc1cccc(CNC(=O)OCc2[nH]c3ccccc3c(=O)c2C)c1 [Ex 283] | 240 to 243 °C | 61.6 ± 1.7 | –
Cc1c(COC(=O)NCCCc2ccccc2)[nH]c2ccccc2c1=O [Ex 284] | – | 64.2 ± 0.1 | 70 to 105
Cc1c(COC(=O)Nc2cccc(Cc3ccccc3)c2)[nH]c2ccccc2c1=O [Ex 285] | – | 67.3 ± 0.1 | –
Cc1c(COC(=O)NCC2CCCCC2)[nH]c2ccccc2c1=O [Ex 291] | – | 118.8 ± 0.4 | –
Cc1c(COc2cc(OCCC(C)(C)O)ccn2)[nH]c2ccccc2c1=O [Example 4, 2-({[4-(3-hydroxy-3-methylbutoxy)pyridin-2-yl]oxy}methyl)-3-methylquinolin-4(1H)-one] | 127 to 130 °C | 84.7 ± 2.1 | 70 to 105
Cc1c(CO[C@H]2CC[C@H](N3CCCC3=O)CC2)[nH]c2ccccc2c1=O [Example 7, 3-methyl-2-({[trans-4-(2-oxopyrrolidin-1-yl)cyclohexyl]oxy}methyl)quinolin-4(1H)-one] | 216 to 217 °C | – | –
Cc1c(COc2cccc(N3CCOCC3=O)c2)[nH]c2ccccc2c1=O [Example 9, 3-methyl-2-{[3-(3-oxomorpholin-4-yl)phenoxy]methyl}quinolin-4(1H)-one] | 221 to 223 °C | 88.7 ± 1.5 | –
Cc1c(COc2cc(OCCC(C)(C)O)cc(N3CCOCC3)c2)[nH]c2ccccc2c1=O [Example 10, 2-{[3-(3-hydroxy-3-methylbutoxy)-5-morpholin-4-ylphenoxy]methyl}-3-methylquinolin-4(1H)-one] | 189 to 190 °C | – | –
CCCCCCCS(=O)(=O)Cc1[nH]c2ccccc2c(=O)c1C [Example 19, 2-[(heptylsulfonyl)methyl]-3-methylquinolin-4(1H)-one] | > 310 °C (dec.) | 99.1 ± 0.0 | –

The next lines start with results.

melting point | Structure (SMILES) | Inh(%) ROS production inhibition rate (NADPH oxidase) [%] | inhibition in vivo at 3 mg/kg [1] [%]
201 to 203 °C | Cc1c(CCCCCOc2ccc(F)cc2F)[nH]c2ccc(F)cc2c1=O [Ex 28] | – | –
139 to 140 °C | Cc1c(COCCCCOc2cccc3c2OC(C)(C)C3)[nH]c2ccccc2c1=O [Ex 52] | – | –
155 to 157 °C | Cc1c(COCCCCOCCC2CC2)[nH]c2ccccc2c1=O [Ex 53] | – | –
189 to 190 °C | Cc1c(COc2cc(OCCC3(O)CCOCC3)ccn2)[nH]c2ccccc2c1=O [Ex 179] | – | –
171 to 173 °C | CCCCCC(=O)N1CCN(Cc2[nH]c3ccccc3c(=O)c2C)CC1 [Ex 181] | – | –
212 to 215 °C | Cc1c(CCc2cc(OCC3CCOCC3)ccn2)[nH]c2ccccc2c1=O [Ex 184] | – | –
155 to 157 °C | Cc1c(COCC(C)(C)COC(=O)N2CCOCC2)[nH]c2ccccc2c1=O [Ex 204] | – | –
125 to 127 °C | Cc1c(COCCC2(O)CCCCC2)[nH]c2ccccc2c1=O [Ex 205] | – | –
194 to 196 °C | Cc1c(COC2CCOCC2)[nH]c2ccccc2c1=O [Ex 212] | – | –
> 270 °C (dec.) | CCNC(=O)N[C@H]1CC[C@H](OCc2[nH]c3ccccc3c(=O)c2C)CC1 [Ex 224] | – | –
> 231 °C (dec.) | Cc1c(COc2ncc(C(=O)NC3CCCC3)cn2)[nH]c2ccccc2c1=O [Ex 230] | – | –
225 to 228 °C | CCS(=O)(=O)N1CCC(CCc2[nH]c3ccccc3c(=O)c2C)CC1 [Ex 279] | 98.9 ± 1.0 | –
200 to 202 °C | Cc1c(COc2cccc(OCC3CCOCC3)c2)[nH]c2ccccc2c1=O [Example 2, 3-methyl-2-{[3-(tetrahydro-2H-pyran-4-ylmethoxy)phenoxy]methyl}quinolin-4(1H)-one] | 91.9 ± 5.2 | –
200 to 202 °C | Cc1c(COc2ccc(CCC3(O)CCCC3)cc2)[nH]c2ccccc2c1=O [Example 3, 2-({4-[2-(1-hydroxycyclopentyl)ethyl]phenoxy}methyl)-3-methylquinolin-4(1H)-one] | – | –
268 to 271 °C | CCOC(=O)N[C@H]1CC[C@H](OCc2[nH]c3ccccc3c(=O)c2C)CC1 [Example 5, ethyl {trans-4-[(3-methyl-4-oxo-1,4-dihydroquinolin-2-yl]methoxy]cyclohexyl}carbamate] | – | –
245 to 247 °C | CCS(=O)(=O)N[C@H]1CC[C@H](OCc2[nH]c3ccccc3c(=O)c2C)CC1 [Example 6, N-{trans-4-[(3-methyl-4-oxo-1,4-dihydroquinolin-2-yl)methoxy]cyclohexyl}ethanesulfonamide] | 79.9 ± 1.2 | –
137 to 138 °C | Cc1c(COc2cc(OCCC3CCOCC3)ccn2)[nH]c2ccccc2c1=O [Example 8, 3-methyl-2-[({4-[2-(tetrahydro-2H-pyran-4-yl)ethoxy]pyridin-2-yl}oxy)methyl]quinolin-4(1H)-one] | 91.5 ± 4.7 | 70 to 105
